GI50 and TGI data for 16 compounds are collected here from PubChem BioAssay (NCI).

SMILES strings stand for the structures. “And” between values parts separate entries of the source, which are not always exact repeats. Equal values may be shown once.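 Method: 48-hour compound exposure of cells in 96-well plates, five concentrations, linear interpolation of endpoints. The concentration for 50% growth inhibition is given as GI50. Definition used: TGI = concentration required for complete inhibition of growth.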

What all share (assay): inhibition of tumour cell growth, NCI panel, 48 h
The test system of assay [1] is K-562 leukemia.
Assay [2] has as its system BT-549 breast.
Assay [3] deals with SNB-75 CNS.
Assay [4] concerns UO-31 renal.
Assay [5] relates to M14 melanoma.
The subject of assay [6] is SK-MEL-2 melanoma.
Assay [7] concerns SNB-19 CNS.
For assay [8], the system named is A498 renal.
Assay [9] has as its system SN12C renal.
In assay [10] the test system is NCI/ADR-RES ovarian.

For `O=C(Nc1ccc(Oc2cccc(Cl)c2)c(Cl)c1)c1cccnc1`, the GI50 is 0.255 µM in assay [1]; 5.42 µM in assay [2]; 1.21 µM in [3]; 3.63 µM in assay [4]; 1.38 µM in assay [5]; 2.11 µM in assay [6]. Besides, the GI50 in assay [7] is 3.15 µM; in assay [8], 1.52 µM; in [9], 3.74 µM; in [10], 1.28 µM. The TGI in [1] was over 50 µM; in [2], 44.3 µM; in [3], 4.81 µM; in assay [4], 30 µM; in [5], 29 µM; in assay [6], 20 µM. Also, the TGI in assay [7] was over 50 µM; in assay [8] it was 4.68 µM; in assay [9] it was over 50 µM; in [10], 11.3 µM.
With `Cn1cc(C2=C(c3cn(C)c4cc(Cl)ccc34)C(=O)NC2=O)c2ccccc21`, the GI50 is 0.089 µM in assay [1]; 0.623 µM in [2]; 0.0893 µM in [3]; 0.195 µM in assay [4]; 0.0879 µM in assay [5]; 0.212 µM in assay [6]. Also, the GI50 is 0.145 µM in [7], 0.0619 µM in assay [8], 0.145 µM in [9] and 0.0761 µM in assay [10]. Moreover, the TGI in [1], in [2], in assay [3], in assay [4], in assay [5] and in [6] was over 25 µM each time. Also, the TGI in assay [7] was over 25 µM; in assay [8], 0.928 µM; in [9], over 15.9 µM.
For the compound `Nc1ccc(Sc2ccc3c4c2cccc4c(=O)n2c4ccccc4nc32)cc1`, the GI50 was 4.93 µM in assay [1]; 6.06 µM in [2]; 3.35 µM in assay [3]; 2.43 µM in assay [4]; 4.51 µM in assay [5]; 8.87 µM in assay [6]. The GI50 in [7] was 6.17 µM; in [8], 3.67 µM; in assay [9], 2.61 µM; in assay [10], 5.95 µM. The TGI was over 100 µM in assay [1]; 56.3 µM in [2]; 48.1 µM in assay [3]; 18.7 µM in assay [4]; 27.9 µM in [5]; 65.6 µM in assay [6]. Further, the TGI is over 100 µM in assay [7], 57.9 µM in [8], 19.7 µM in [9] and 62.8 µM in assay [10].
Consider `CCN1CCN(c2nc(NNC(=O)c3cccc(OC)c3)nc(N3CCN(C(c4ccccc4)c4ccccc4)CC3)n2)CC1`, for which the GI50 in assay [1] was 2.79 µM; in assay [2] it was 2.65 µM; in assay [3], 0.201 µM; in assay [4] it was 1.23 µM; in assay [5], 1.67 µM; in assay [6] it was 2.02 µM. In addition, the GI50 was 4.63 µM in assay [7], 3.73 µM in assay [8], 1.62 µM in [9] and 2.42 µM in [10]. Further, the TGI was over 100 µM in assay [1]; 9.81 µM in assay [2]; 7.71 µM in [3]; 2.47 µM in assay [4]; 3.31 µM in assay [5]; 4.05 µM in [6]. The TGI in assay [7] is 26.3 µM; in [8], 15.3 µM; in assay [9], 3.36 µM; in assay [10], 7.12 µM.
For the compound `C/C(=C\COc1ccc2ccc(=O)oc2c1)CCC(=O)C(C)(C)O`, the TGI in assay [1] is 46.8 µM; in [2], 74.9 µM; in assay [3], over 100 µM; in assay [4] it was 91.9 µM; in assay [5], 61.2 µM; in [6], over 100 µM. Moreover, the TGI in assay [7] is over 100 µM; in assay [8], 64.2 µM; in assay [9], 58.4 µM; in [10], over 100 µM.
As for `COc1ccc2c(c1)/C(=N/OC(C)=O)c1c-2c(Nc2ccc(/C(C)=N/OC(C)=O)cc2)nc2ccccc12`, the GI50 is 40.4 µM in assay [1]; over 100 µM in [2]; 25 µM in [3]; 72.8 µM in [4]; 68.9 µM in assay [5]; 83.1 µM in assay [6]. Besides, the GI50 in assay [7] was over 100 µM; in assay [8], over 100 µM; in assay [9], 69.7 µM; in assay [10], 33 µM. The TGI in [1] is over 100 µM; in assay [2], over 100 µM; in assay [3], 75.9 µM; in assay [4] it was over 100 µM; in assay [5], over 100 µM; in [6] it was over 100 µM. In addition, the TGI in assay [7], in [8], in [9] and in assay [10] was over 100 µM in each case.
For the compound `Cn1cc(C2=C(c3cccc(Cl)c3)C(=O)NC2=O)c2ccccc21`, the GI50 in [1] was 12.6 µM; in assay [2] it was over 25 µM; in assay [3], 6.65 µM; in assay [4] it was 8.3 µM; in assay [5], 8.03 µM; in assay [6] it was over 25 µM. Further, the GI50 in assay [7] was over 25 µM; in assay [8], 8.25 µM; in [9], 20.6 µM; in assay [10], over 25 µM. Moreover, the TGI was over 25 µM in [1]; over 25 µM in [2]; over 25 µM in assay [3]; over 25 µM in assay [4]; 23 µM in assay [5]; over 25 µM in assay [6]. In addition, the TGI in assay [7], in assay [8], in assay [9] and in assay [10] was over 25 µM throughout.
For the compound `O=C1c2ccccc2-c2c1c1ccccc1c(=O)n2CCCNCCO`, the GI50 is 0.284 µM in [1]; 1.65 µM in assay [2]; 1.43 µM in assay [3]; 0.303 µM in [4]; 1.21 µM in assay [5]; 2.84 µM in assay [6]. In addition, the GI50 was 0.813 µM in assay [7], 0.454 µM in assay [9] and 1.67 µM in assay [10]. For the same compound, the TGI in assay [1] came to 7.95 µM; in assay [2], 5.9 µM; in [3] it was 5.68 µM; in [4] it was 2.06 µM; in assay [5], 3 µM; in [6] it was 6.15 µM. Further, the TGI is 6.73 µM in assay [7], 1.28 µM in [8], 6.25 µM in assay [9] and 8.7 µM in assay [10].
As to `CN1CCN(Cc2ccc(NC(=O)c3cncc(C#Cc4cncc5[nH]ncc45)c3)cc2C(F)(F)F)CC1`, the GI50 in assay [1] is 0.005 µM; in assay [2], 1.39 µM; in assay [3], 0.793 µM; in assay [4], 1.01 µM; in assay [5] it was 0.157 µM; in [6] it was 0.295 µM. In addition, the GI50 in assay [7] is 3.81 µM; in [8], 0.275 µM; in assay [9] it was 0.906 µM; in assay [10], 4.09 µM. Also, the TGI in assay [1] turned out to be 1.64 µM; in [2], 5.58 µM; in [3], 2.51 µM; in assay [4], 2.52 µM; in [5], 0.706 µM; in [6] it was 1.25 µM. Also, the TGI in assay [7] came out at 9.93 µM; in assay [8] it was 1.56 µM; in assay [9], 5.73 µM; in [10] it was 11.3 µM.
Regarding `CCN(CC)CCn1nc2c3c(cccc3c1=O)-c1ccccc1-2`, the GI50 in [1] is 2.03 µM; in assay [2], 6.16 µM; in [3] it was 3.27 µM; in assay [4], 1.25 µM; in assay [5] it was 2.15 µM; in assay [6], 3.79 µM. Besides, the GI50 is 2.63 µM in assay [7], 2.98 µM in [8], 2.07 µM in assay [9] and 2.19 µM in assay [10]. For the same compound, the TGI was over 50 µM in assay [1]; 15.1 µM in [2]; 11.1 µM in [3]; over 50 µM in assay [4]; 13.1 µM in assay [5]; 13 µM in assay [6]. In addition, the TGI in [7] is over 50 µM; in assay [8] it was 9.95 µM; in [9], over 50 µM; in [10], 45.1 µM.
Take `O=[N+]([O-])C1(CO)COC2(OC1)c1ccccc1-c1ccccc12`: the TGI in assay [1] is over 87 µM; in assay [2], over 88.2 µM; in [3] it was over 100 µM; in [4], over 100 µM; in [5], over 88.4 µM; in assay [6], over 100 µM. Further, the TGI is over 100 µM in assay [7], over 100 µM in assay [8], over 100 µM in assay [9] and over 72.9 µM in [10].
As for `NS(=O)(=O)c1ccc(N=Nc2cc3ccccc3c(C(=O)O)c2O)cc1`, the TGI in assay [1] is over 100 µM; in assay [2] it was over 100 µM; in assay [3], over 94.4 µM; in [4], 99 µM; in assay [5] it was over 100 µM; in [6], over 67.1 µM. In addition, the TGI in [7] was over 100 µM; in assay [8], over 86.8 µM; in assay [9], over 100 µM; in assay [10], over 100 µM.
In the case of `CCN(Cc1cccc(C)c1)c1ccc(CO)c(Cl)c1`, the GI50 in assay [1] is 3.98 µM; in [2] it was 13.4 µM; in [3], 13.1 µM; in assay [4], 6.47 µM; in assay [5], 14.3 µM; in [6] it was 5.77 µM. In addition, the GI50 was 15.8 µM in assay [7], 0.0362 µM in assay [8], 12.1 µM in assay [9] and 11.3 µM in [10]. In addition, the TGI worked out at 44.6 µM in assay [1]; 27.2 µM in assay [2]; 37.5 µM in [3]; 20.6 µM in assay [4]; 29.8 µM in [5]; 21.8 µM in assay [6]. The TGI came out at 41 µM in [7], 0.162 µM in [8], 26.3 µM in assay [9] and 24.5 µM in [10].
In the case of `Cn1ccnc1C(=O)/C=C/c1ccc(CC(=O)Nc2cc(F)c(F)c(F)c2)cc1`, the GI50 was 0.808 µM in [1]; 1.15 µM in [2]; 0.867 µM in [3]; 1.7 µM in [4]; 3.68 µM in assay [5]; 4.22 µM in assay [6]. For the same compound, the GI50 is 2.87 µM in assay [7], 3.58 µM in [8], 1.4 µM in assay [9] and 1.09 µM in [10]. Also, the TGI is over 25 µM in [1]; 4.47 µM in [2]; over 25 µM in [3]; 4.96 µM in [4]; 8.45 µM in assay [5]; 10.6 µM in assay [6]. For the same compound, the TGI in assay [7] was 6.59 µM; in [8], 7.65 µM; in [9] it was 8.61 µM; in [10], over 25 µM.
Regarding `CCCCCCCC(=O)O[C@H]1[C@H]2[C@@H](CC1(C)C)C(=O)[C@]13O[C@H]1C(=O)[C@]1(CO1)[C@]23C`, the GI50 is 1.52 µM in [1]; 14.2 µM in assay [3]; 5.73 µM in [4]; 22.7 µM in [6]; 21.6 µM in assay [8]; 2.39 µM and 1.72 µM in assay [10]. Also, the TGI in [1] was 5.13 µM and 5.3 µM; in assay [2] it was 28.8 µM; in assay [3], 29.4 µM and 53.6 µM; in [4], 12.9 µM and 28.2 µM; in [5] it was 11.3 µM; in assay [6], 45.5 µM and 8.57 µM. Moreover, the TGI is 44.9 µM and 45.9 µM in assay [7]; 36.1 µM and 22.8 µM in assay [8]; 12.6 µM and 9.31 µM in [9]; 5.26 µM and 9.64 µM in assay [10].
On to `CCN(CC)c1ccc(/C=C2/NC(=O)NC2=O)cc1`, for which the GI50 in assay [1] is 0.671 µM; in assay [2], 7.49 µM; in assay [3], 4.01 µM; in assay [5], 3.3 µM; in assay [6] it was 3.03 µM; in [7] it was 15.5 µM. Also, the GI50 in assay [8] was 7.44 µM; in assay [9], 11.1 µM; in assay [10] it was 1.93 µM. For the same compound, the TGI in assay [1] was over 100 µM; in assay [2], over 100 µM; in [3], over 100 µM; in assay [4], over 100 µM; in assay [5], 38.9 µM; in assay [6] it was over 31.4 µM. The TGI in assay [7] was over 100 µM; in assay [8] it was over 89.3 µM; in [9], over 100 µM; in assay [10], 12.2 µM.
